Literature values in patent publication US9498464B2, “Treatment of arterial wall by combination of RAAS inhibitor and HMG-CoA reductase inhibitor” (ARTSKIN d.o.o., priority 2011, dated 2016).

Tested on: arterial stiffness
Details: 12 weeks, 80 mg then 160 mg/day, patients with type 2 diabetes and hypertension

CCCCC(=O)N(Cc1ccc(-c2ccccc2-c2nnn[nH]2)cc1)[C@H](C(=O)O)C(C)C [valsartan]
arterial stiffness (pulse wave analysis): improves arterial stiffness
